Data as given in PMC7211837, “Design, synthesis, molecular modelling and in vitro screening of monoamine oxidase inhibitory activities of novel quinazolyl hydrazine derivatives” (Royal Society Open Science, 2020).
“And” between values parts separate entries of the source, which are not always exact repeats. Identical values can stand only once. “Also recorded” adds a separate entry of the source.

Key:
[1] = biological target: T1, membrane-bound human MAO-B (Homo sapiens, UniProt P27338); assay: MAO-B inhibition, H2O2/horseradish peroxidase coupled fluorescence assay with tyramine; assay type: biochemical; conditions: for maximum inhibition (%) hMAO-B: from dose–response curve, in parentheses after IC50, given if less than 95%; for inhibition at 10 µM: read-out: % inhibition at 10 μM hMAO-B, 10 μM compound, tyramine 0.32 mM (2 × KM), average of two independent experiments; for IC50: read-out: IC50 (μM) hMAO-B
T1 sequence (P27338 1-520): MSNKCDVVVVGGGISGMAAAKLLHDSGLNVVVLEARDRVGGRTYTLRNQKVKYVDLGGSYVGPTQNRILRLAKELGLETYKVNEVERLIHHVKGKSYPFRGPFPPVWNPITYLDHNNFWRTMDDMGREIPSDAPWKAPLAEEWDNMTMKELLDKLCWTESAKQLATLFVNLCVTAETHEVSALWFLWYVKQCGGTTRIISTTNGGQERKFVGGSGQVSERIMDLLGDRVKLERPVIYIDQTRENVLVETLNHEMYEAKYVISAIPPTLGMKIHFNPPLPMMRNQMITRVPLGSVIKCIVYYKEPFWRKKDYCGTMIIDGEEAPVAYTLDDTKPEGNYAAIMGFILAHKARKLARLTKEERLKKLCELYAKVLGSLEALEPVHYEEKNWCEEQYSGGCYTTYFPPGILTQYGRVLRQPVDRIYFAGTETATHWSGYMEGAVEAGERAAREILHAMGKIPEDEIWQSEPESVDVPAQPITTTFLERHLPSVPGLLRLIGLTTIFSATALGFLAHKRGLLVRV
Protocol: (§1) Incomplete inhibition of activity could arise either from indirect effects on these enzymes or from the compounds acting as substrates at the highest concentrations.
(§2) The activity of MAO was determined using the coupled assay method of [41, 42] in which the product, H2O2, acts with horseradish peroxidase to convert 10-acetyl-3,7-dihydroxyphenoxazine to the fluorescent resorufin. […] The data were analysed using the equation for a three-parameter curve in Graphpad PRISM v. 4, and the % inhibition calculated from the top and bottom of the resulting curve.

[2] = biological target: T2, membrane-bound human MAO-A (Homo sapiens, UniProt P21397); assay: MAO-A inhibition, H2O2/horseradish peroxidase coupled fluorescence assay with tyramine; assay type: biochemical; conditions: for selectivity MAO-A versus MAO-B: from IC50 values on MAO-A and MAO-B; for inhibition at 10 µM: read-out: % inhibition at 10 μM hMAO-A, 10 μM compound, tyramine 0.8 mM (2 × KM), average of two independent experiments; for inhibition of MAO-A compared with MAO-B in the screen: screen at 10 µM
T2 sequence (P21397 1-527): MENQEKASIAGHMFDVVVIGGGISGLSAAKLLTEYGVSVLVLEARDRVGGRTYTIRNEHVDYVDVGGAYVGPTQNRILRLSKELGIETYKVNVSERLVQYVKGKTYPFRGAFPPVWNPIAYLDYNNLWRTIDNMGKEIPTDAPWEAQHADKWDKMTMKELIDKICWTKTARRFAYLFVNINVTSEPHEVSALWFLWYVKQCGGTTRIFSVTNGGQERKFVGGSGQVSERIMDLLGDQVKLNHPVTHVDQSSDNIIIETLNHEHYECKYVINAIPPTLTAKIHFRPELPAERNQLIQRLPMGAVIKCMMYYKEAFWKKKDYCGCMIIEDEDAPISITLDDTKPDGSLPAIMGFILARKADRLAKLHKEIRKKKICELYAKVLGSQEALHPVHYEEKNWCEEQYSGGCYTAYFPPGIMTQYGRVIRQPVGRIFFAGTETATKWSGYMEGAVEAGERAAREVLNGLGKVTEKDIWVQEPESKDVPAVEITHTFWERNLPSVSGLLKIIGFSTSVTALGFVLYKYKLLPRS
Protocol: as §1, §2

[3] = tyramine at 2 × KM, seven concentrations 0.01–300 µM, ± s.d., two independent experiments
[4] = 30 min preincubation, dilution ×100, increasing substrate concentration

COc1cc(C=NNC(=O)CN2C(=O)c3cc(Cl)ccc3NC2c2ccccc2)ccc1O (centres unmarked) [5h, 2-(6-Chloro-4-oxo-2-phenyl-1,4-dihydroquinazolin-3(2H)-yl)-N'-(4-hydroxy-3-methoxybenzylidene)-acetohydrazide]
maximum inhibition (%) hMAO-B [1]: full inhibition
inhibition at 10 µM [1]: 72%
IC50 (μM) hMAO-B [1, 3]: micromolar affinity
IC50 [1, 3]: 0.44 ± 0.1 µM
mechanism of inhibition of MAO-A [2, 4]: competitive inhibition
selectivity MAO-A versus MAO-B [2]: non-selective
inhibition at 10 µM [2]: 70%
inhibition of MAO-A compared with MAO-B in the screen [2]: equal inhibition of MAO-A and MAO-B; also recorded: equally inhibited
IC50 (μM) hMAO-A [2, 3]: micromolar potency
IC50 ([2]; tyramine at 2 × KM, seven concentrations 0.01–300 µM, ± s.d., two independent experiments, read-out: IC50 (μM) hMAO-A): 0.31 ± 0.11 µM
melting point: 240 to 242 °C

COc1ccc2c(c1)[nH]c1c(C)nccc12 [harmine, reference compound]
inhibition at 10 µM [1]: 17%
IC50 [1, 3]: 11.6 ± 3.1 µM
inhibition at 10 µM [2]: 100%

COc1ccc(C=NNC(=O)CN2C(=O)c3cc(Cl)ccc3NC2c2ccccc2)cc1 (centres unmarked) [5f, 2-(6-Chloro-4-oxo-2-phenyl-1,4-dihydroquinazolin-3(2H)-yl)-N'-(4-methoxybenzylidene)-acetohydrazide]
melting point: 138 to 140 °C

COc1ccc(/C=N/n2c(C)nc3ccccc3c2=O)cc1 [14c]
maximum inhibition (%) hMAO-B [1]: 73%
inhibition at 10 µM [1]: 44%
IC50 [1, 3]: 6.75 ± 1.06 µM
inhibition at 10 µM [2]: 8%

Cc1nc2ccccc2c(=O)n1N [compound 13]
inhibition at 10 µM [1]: 23%
inhibition at 10 µM [2]: -8%

NNC(=O)Cn1c(-c2ccccc2)nc2ccccc2c1=O [compound 7, 2-(4-oxo-2-phenylquinazolin-3(4H)-yl)acetohydrazide]
melting point: 215 to 218 °C

COc1ccc(C=NNC(=O)CN2C(=O)c3ccccc3NC2c2ccccc2)cc1 (centres unmarked) [5c, N'-(4-Methoxybenzylidene)-2-(4-oxo-2-phenyl-1,2-dihydroquinazolin-3(4H)-yl)acetohydrazide]
melting point: 210 to 212 °C

C[C@H](NCc1ccc(OCc2cccc(F)c2)cc1)C(N)=O [safinamide, reference compound]
inhibition at 10 µM [2]: 11%

Cc1nc2ccccc2c(=O)n1/N=C/c1ccccc1 [14a]
maximum inhibition (%) hMAO-B [1]: 77%
inhibition at 10 µM [1]: 40%
IC50 [1, 3]: < 10 µM and 6.84 µM
inhibition at 10 µM [2]: 5%
IC50 (μM) hMAO-A [2, 3]: does not inhibit MAO-A

Cc1nc2ccccc2c(=O)n1CC(=O)NN [compound 11, 2-(2-Methyl-4-oxoquinazolin-3(4H)-yl)acetohydrazide]
inhibition at 10 µM [1]: 19%
IC50 [1, 3]: > 100 µM
inhibition at 10 µM [2]: 15%
inhibition of MAO-A compared with MAO-B in the screen [2]: equal inhibition of MAO-A and MAO-B; also recorded: equally inhibited

COc1cc(/C=N/n2c(C)nc3ccccc3c2=O)ccc1O [14d]
maximum inhibition (%) hMAO-B [1]: 77%
inhibition at 10 µM [1]: 44%
IC50 [1, 3]: 5.93 ± 1.02 µM
inhibition at 10 µM [2]: 11%

Cc1nc2ccccc2c(=O)n1/N=C/c1ccc(O)cc1 [14b]
mechanism of inhibition of MAO-B [1, 4]: competitive inhibition
maximum inhibition (%) hMAO-B [1]: 77%
inhibition at 10 µM [1]: 52%
IC50 [1, 3]: 4.64 ± 0.41 µM
selectivity MAO-A versus MAO-B [2]: B-selective
inhibition at 10 µM [2]: 14%
IC50 (μM) hMAO-A [2, 3]: no inhibition

COC(=O)Cn1c(-c2ccccc2)nc2ccccc2c1=O [compound 8, Methyl 2-(4-oxo-2-phenylquinazolin-3(4H)-yl)acetate]
melting point: 115 to 116 °C

COC(=O)CN1C(=O)c2ccccc2NC1c1ccccc1 (centres unmarked) [3a, Methyl-2-(4-oxo-2-phenyl-1,2-dihydroquinazolin-3(4H)-yl)acetate]
maximum inhibition (%) hMAO-B [1]: 40%
inhibition at 10 µM [1]: 38%
IC50 [1, 3]: 5.28 ± 1.44 µM
inhibition at 10 µM [2]: -6%
IC50 (μM) hMAO-A [2, 3]: none
